Consider one compound from patent US12398155B2, “Thienopyridinone compounds” (Janssen Pharmaceutica NV, priority 2019, dated 2025).

The target in assay [1] is T1, human FGFR3 V555M enzyme (cytoplasmic domain carrying V555M mutation) (Homo sapiens, UniProt P22607, V555M).
T1 construct: cytoplasmic domain carrying V555M mutation, from Cama Biosciences; purchased Cama Biosciences (so in the source)
Nature of the assay: FGFR3 V555M mobility shift assay (enzymatic assay). The class given is biochemical. As to conditions: 30 μM ATP, 45 minutes at 30° C.; read-out: FGFR3 V555M Caliper. The method, then:
FGFR3 V555M Mobility Shift Assay (Enzymatic Assay)
(§1) In a final reaction volume of 25 μL, 0.04 ng/μL human FGFR3 V555M enzyme (cytoplasmic domain carrying V555M mutation, from Cama Biosciences) was incubated with 30 μM ATP, 1 μM FL-peptide 30 substrate and 250 nL of testing compound (1% DMSO final) in assay buffer (100 mM HEPES pH 7.4, 10 mM MgCl2, 0.003% Brij35, 1 mM DTT). After incubation for 45 minutes at 30° C. the reaction was stopped with 10 μL of 0.5M EDTA pH 8.0, and then 25 μL of reaction mixture was transferred to reading plate and measured on Caliper EZ reader II. The substrate-product conversion rate was used as raw data for normalization and concentration-response curve (10 dose points with 4× serial dilution, starting with 10 μM) was plotted using Prism to calculate IC50 (M), pIC50 (−log IC50) and HillSlope value.

For assay [2], the target named is T2, human FGFR3 V555L enzyme (cytoplasmic domain carrying V555L mutation) (Homo sapiens, UniProt P22607, V555L).
T2 construct: cytoplasmic domain carrying V555L mutation, from Cama Biosciences; purchased Cama Biosciences (so in the source)
Briefly: FGFR3 V555L mobility shift assay (enzymatic assay). It is filed as biochemical. As to conditions: 40 μM ATP, 50 minutes at 30° C.; read-out: FGFR3 V555L Caliper. How it is done: FGFR3 V555L Mobility Shift Assay (Enzymatic Assay)
as §1, with “FGFR3 V555L” for “FGFR3 V555M”, “carrying V555L” for “carrying V555M”, “with 40” for “with 30”, “for 50” for “for 45”

Assay [3] deals with NIH/3T3 cells overexpressing FGFR3 WT-TACC3 fusion protein. Briefly: NIH/3T3 FGFR3 WT-TACC3 cellular phospho-ERK assay (in vitro PD assay). It is filed as cell-based. The settings on record: Mus musculus, NIH3T3; 1-hr incubation, AlphaLISA p-ERK1/2; read-out: NIH/3T3 FGFR3 WT-TACC3 pERK. The method, then: NIH/3T3 FGFR3 WT-TACC3 Cellular Phospho-ERK Assay (In Vitro PD Assay)
50 μL of cell suspension (NIH/3T3 cells overexpressing FGFR3 WT-TACC3 fusion protein) (total 10,000 cells per well in growth medium (DMEM containing 1% Glutamax, 10% FBS and 1% Pen/Strep)) was seeded in a 384-well plate. After overnight incubation at 37° C. and 5% CO2, 5.5 μL of growth medium containing 10× testing compound was added into cell cultures (10 dose points with 4× serial dilution, starting with 10 μM, 0.1% DMSO final). After 1-hr incubation at 37° C. and 5% CO2, the medium was depleted and AlphaLISA SureFire Ultra p-ERKI1/2 (Thr202/Tyr204) Assay Kit (from PerkinElmer) was applied for phospho-ERK level detection according to the kit instructions. The RFUs (relative fluorescence units were measured on EnVision microplate reader (ex. 680 nm, em. 615 nm) and concentration-response curve was plotted using Prism to calculate IC50 (M), pIC50 (−log IC50) and HillSlope value.

T2 sequence (P22607 397-806 V555L limits assumed): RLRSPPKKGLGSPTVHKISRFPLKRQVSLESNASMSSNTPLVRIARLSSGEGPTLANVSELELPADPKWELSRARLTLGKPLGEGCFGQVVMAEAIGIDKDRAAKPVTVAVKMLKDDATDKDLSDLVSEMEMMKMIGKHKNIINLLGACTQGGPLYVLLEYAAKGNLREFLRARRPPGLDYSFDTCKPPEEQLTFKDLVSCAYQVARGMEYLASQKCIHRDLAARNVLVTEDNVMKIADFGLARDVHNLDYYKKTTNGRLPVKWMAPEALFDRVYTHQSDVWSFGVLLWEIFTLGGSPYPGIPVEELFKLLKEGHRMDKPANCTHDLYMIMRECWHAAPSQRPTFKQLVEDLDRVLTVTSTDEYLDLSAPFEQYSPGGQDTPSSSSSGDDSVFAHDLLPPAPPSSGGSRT
T1 sequence (P22607 397-806 V555M limits assumed): as the sequence (P22607 397-806 V555L limits assumed) above, with L159M counted along it

Consider `C[C@H](Nc1c(-c2nc3cnc(N4CCOCC4)cc3[nH]2)c(=O)[nH]c2ccsc12)c1ncccn1` [Compound 2, (S)-6-(6-Morpholino-1H-imidazo[4,5-c]pyridin-2-yl)-7-((1-(pyrimidin-2-yl)ethyl)amino)thieno[3,2-b]pyridin-5(4H)-one], for which the values for the IC50 in assay [1], in assay [2] and in assay [3] were 0.23 nM, 0.32 nM and 1.09 nM, respectively.
